Earlier results on 1 compound are cited in US20190381137A1, “BOLAAMPHIPHILIC COMPOUNDS, COMPOSITIONS AND USES THEREOF” (Lauren Sciences LLC, priority 2012, published 2019).

Each structure is given as a SMILES string.

The conditions of the data set: conjugate acid (protonated form) of the imidazole side chain.

For `N[C@@H](Cc1c[nH]cn1)C(=O)O` [histidine], the pKa result is listed as “approximately 6.0”.
